Source: ChEMBL document CHEMBL1201862, “PubChem BioAssay data set” (2004)
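In this assay, cells in 96-well plates receive the compound at five concentrations for 48 hours. Endpoints are linearly interpolated between the surrounding concentrations. At the GI50, growth is halved.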 The source made the active and inactive calls. Cut-off read from the data, not from the text of the source: active = GI50 up to about 1.1 µM and inactive = higher.

Key:
Test in all cases: inhibition of tumour cell growth, NCI panel, 48 h
M19-MEL = tested on: M19-MEL
HOP-62 = tested on: HOP-62
MOLT-4 = tested on: MOLT-4
LXFL 529 = tested on: LXFL 529
NCI-H460 = tested on: NCI-H460
DLD-1 = tested on: DLD-1
KM12 = tested on: KM12
LOX IMVI = tested on: LOX IMVI
IGROV-1 = tested on: IGROV-1
HOP-92 = tested on: HOP-92
UACC-257 = tested on: UACC-257
OVCAR-4 = tested on: OVCAR-4
EKVX = tested on: EKVX
RPMI-8226 = tested on: RPMI-8226
KM-20L2 = tested on: KM-20L2
Malme-3M = tested on: Malme-3M
A549 = tested on: A549
OVCAR-3 = tested on: OVCAR-3
RXF 393 = tested on: RXF 393
HOP-18 = tested on: HOP-18
HCT-116 = tested on: HCT-116
SN12C = tested on: SN12C
SK-MEL-28 = tested on: SK-MEL-28
NCI-H226 = tested on: NCI-H226
M14 = tested on: M14
SNB-75 = tested on: SNB-75
UACC-62 = tested on: UACC-62
OVCAR-5 = tested on: OVCAR-5
U-251 = tested on: U-251
UO-31 = tested on: UO-31
SF-295 = tested on: SF-295
OVCAR-8 = tested on: OVCAR-8
786-0 = tested on: 786-0
ACHN = tested on: ACHN
HL-60 = tested on: HL-60
XF498 = tested on: XF498
SK-MEL-2 = tested on: SK-MEL-2
SNB-78 = tested on: SNB-78
SW-620 = tested on: SW-620
TK-10 = tested on: TK-10
HCC 2998 = tested on: HCC 2998
RXF 631 = tested on: RXF 631
NCI-H23 = tested on: NCI-H23
DMS-114 = tested on: DMS-114
COLO 205 = tested on: COLO 205
SK-MEL-5 = tested on: SK-MEL-5
HT-29 = tested on: HT-29
SF-268 = tested on: SF-268
SNB-19 = tested on: SNB-19
CCRF-CEM = tested on: CCRF-CEM

Measured: GI50

NNC(=O)C(=O)N/N=C1\CCCC1C(=O)CCC(=O)Nc1cccc(Cl)c1 (stereo not given)
inactive: M19-MEL > 100 µM | HOP-62 > 100 µM | MOLT-4 > 100 µM | LXFL 529 > 100 µM | NCI-H460 > 100 µM | DLD-1 > 100 µM | KM12 > 100 µM | LOX IMVI > 100 µM | IGROV-1 > 100 µM | HOP-92 > 100 µM | UACC-257 > 100 µM | OVCAR-4 > 100 µM | EKVX > 100 µM | RPMI-8226 > 100 µM | KM-20L2 > 100 µM | Malme-3M > 100 µM | A549 > 100 µM | OVCAR-3 > 100 µM | RXF 393 > 100 µM | HOP-18 > 100 µM | HCT-116 > 100 µM | SN12C > 100 µM | SK-MEL-28 > 100 µM | NCI-H226 > 100 µM | M14 > 100 µM | SNB-75 > 100 µM | UACC-62 > 100 µM | OVCAR-5 > 100 µM | U-251 > 100 µM | UO-31 > 100 µM | SF-295 > 100 µM | OVCAR-8 > 100 µM | 786-0 > 100 µM | ACHN > 100 µM | HL-60 > 100 µM | XF498 > 100 µM | SK-MEL-2 > 100 µM | SNB-78 > 100 µM | SW-620 > 100 µM | TK-10 > 100 µM | HCC 2998 > 100 µM | RXF 631 > 100 µM | NCI-H23 > 100 µM | DMS-114 > 100 µM | COLO 205 > 100 µM | SK-MEL-5 > 100 µM | HT-29 > 100 µM | SF-268 > 100 µM | SNB-19 > 100 µM | CCRF-CEM > 100 µM
